Reference: patent US20170298056A1, “SMALL MOLECULE INHIBITORS OF HIV-1 ENTRY AND METHODS OF USE THEREOF” (Dana-Farber Cancer Institute, Inc., priority 2014, published 2017)
Like-named read-outs stand apart in the source and are kept apart here.

What was measured:
A-MLV = experiment: Infection of human PBMC by control A-MLV; assay type: cell-based, amphotropic murine leukemia virus; conditions: range of tested concentrations
Experimental: Peripheral blood mononuclear cells (PBMC). Human blood was purchased from Research Blood Components, who obtained a consent firm from each donor, according to the American Association of Blood Banks guidelines, PBMC were isolated from the whole blood using a Ficoll-Paque gradient (Ficoll-Paque PLUS, Amersham Biosciences) and activated at concentration of 10^6 live cells/ml for 3 days in RPMI-PBMC medium (RPMI-1640 supplemented with 20% FBS, 10% IL-2 (Hemagen, Columbia, Md.), 100 μg/ml primocin (InvivoGen, San Diego, Calif.)) with 4 μg/ml phytohemagglutinin (Sigma-Aldrich, St. Louis, Mo.). In some cases, cells were frozen, thawed and activated prior to the assay.
Viral infection assay. Each test compound was serially diluted in DMSO in a 96-well B&W isoplate (PerkinElmer, Boston, Mass.) using an HP D300 Digital Dispenser, to a final volume of 450 nl. DMSO was used as a control. […] The activity of the firefly luciferase, which was used as a reporter protein in the system, was measured with a Centro LB 960 luminometer (Berthold Technologies, Oak Ridge, Tenn.). One hundred microliters of assay buffer (15 mM MgSO4, 15 mM KH2PO4/K2HPO4 pH 7.8, 1 mM ATP and 1 mM DTT) was injected to each well, followed by a 50 μl injection of 1 mM Dluciferin potassium salt (BD Pharmingen, San Jose, Calif.); luminescence was measured for 2 sec. […]

[1] = tested on: cell-surface HIV-1JR-FL WTKA Env; experiment: Binding of 17b, 19b, 2G12, PGT121 antibodies to cell-surface Env (flow cytometry)
Experimental: Flow cytometry. […] After 48-72 hours, cells were detached with 5 mM EDTA/PBS and between 0.5-1 million cells were briefly incubated with various concentrations of 18A and then with or without the indicated concentrations of sCD4. C34-Ig (at a final concentration of 20 μg/ml) or a specified antibody (at final concentration of 1 μg/ml) was added to the cells. […] Cells were washed twice and analyzed with a BD FACSCanto II flow cytometer (BD Biosciences). For analysis of resistant mutants (FIG. 5e-g), the measurements were normalized for the level of sCD4 binding of each mutant, and the response of each mutant was further normalized to that of the wild-type HIV-1JR-FL E168K+N188AΔCT Env (herein designated WTKA). […] The sCD4 IC50/sCD4 binding ratio (FIGS. 4c and e) was calculated as follows. Binding of sCD4 to different envelope mutants was measured by flow cytometry and normalized first to 2G12 binding to account for potentially different Env expression levels, and then to sCD4 binding to the wild-type HIV-1JR-FL Env. The IC50 of sCD4 for inhibition of virus infection by each mutant Env was divided by the normalized sCD4 binding to Env-expressing cells to calculate the sCD4 IC50/sCD4 binding value.

[2] = tested on: amphotropic murine leukemia virus (A-MLV); experiment: Viral infection assay, control virus with A-MLV envelope; assay type: cell-based
Experimental: Production of recombinant HIV-1 expressing luciferase. […] After 48 hours, the supernatant was collected, buffered with 50 mM Hepes pH 7.4 (final concentration) and centrifuged for 5 minutes at 750×g and 4° C. The virus-containing supernatant was used directly or frozen at −80° C.
Viral infection assay. Each test compound was serially diluted in DMSO in a 96-well B&W isoplate (PerkinElmer, Boston, Mass.) using an HP D300 Digital Dispenser, to a final volume of 450 nl. DMSO was used as a control. Viruses pseudotyped with a specific Env were added to each well and incubated briefly at room temperature. Cf2Th-CD4/CCR5 cells were detached with StemPro Accutase Cell Dissociation Reagent (Invitrogen, cat #A11105-01), washed once, and 5000 cells were added to each well. […] Following incubation, the medium was aspirated and cells were lysed with 30 μl of Passive Lysis Buffer (Promega, cat #E1941). The activity of the firefly luciferase, which was used as a reporter protein in the system, was measured with a Centro LB 960 luminometer (Berthold Technologies, Oak Ridge, Tenn.). One hundred microliters of assay buffer (15 mM MgSO4, 15 mM KH2PO4/K2HPO4 pH 7.8, 1 mM ATP and 1 mM DTT) was injected to each well, followed by a 50 μl injection of 1 mM Dluciferin potassium salt (BD Pharmingen, San Jose, Calif.); luminescence was measured for 2 sec. Infection of PBMC was done as above, but 20,000-40,000 cells/well and viruses concentrated by ultracentrifugation were used. After four hours of incubation with viruses, the cells were centrifuged at 200×g for 6 minutes at 4° C., resuspended in 100 μl RPMI-PBMC medium and incubated at 37° C. for an additional 36-40 hours (total 40-44 hours). Supernatant was removed after centrifugation at 400×g for 5 minutes and cells were processed to detect luciferase activity, as described above.
The effect of 18A on viral infection was tested using recombinant HIV-1 pseudotyped with the envelope glycoproteins of different primate immunodeficiency viruses or the amphotropic murine leukemia virus (A-MLV) as a control.

O=C(N/N=C/c1ccc(O)cc1)Nc1cccc2nsnc12 [Compound 18A]
effect on A-MLV infection (A-MLV): No significant effect
binding of 19b and 2G12, sCD4-induced decrease of PGT121 binding [1]: No significant effect
17b binding to cell surface-expressed Env trimer ([1]; in the presence of 18A, no sCD4): reduction in 17b binding
IC50 ([2]; Cf2Th-CD4/CCR5 cells, read-out: IC50 for the control A-MLV): 56 µM
IC50 ([2]; Example 8 table, read-out: IC50 (A-MLV)): 56.5 µM
